Patent US20030129684A1, “Method for detecting fungicides” (priority 2000, published 2003)

Experiments:
[1] = system: Rhodotorula rubra; assay: Bioautographic detection of various fungicides on TLC plate, staining with optical brightener, evaluation at 366 nm; format: cell-based; design: key to Zone of inhibition 2 ppb / Zone of inhibition 500 ppt / Zone of inhibition 100 ppt: −: no zone of inhibition; +: small zone of inhibition; ++: clearly visible zone of inhibition; conditions: for Zone of inhibition 2 ppb / Zone of inhibition 100 ppt / Zone of inhibition 500 ppt: optical brightener, 366 nm, 20 hours incubation
Description: The evaluation is carried out by staining with optical brightener (0.04% of Blankophor® BA 267% from Bayer AG, Germany, in 0.1 mol/l NaOH solution). To this end, the TLC plate is dried, wetted with the stain solution and subsequently stored for 5 minutes at room temperature. The evaluation is carried out at 366 nm. The zones of inhibition are evident as dark spots against a fluorescent background.

[2] = system: Rhodotorula rubra; conditions: fluorescence extinction at 254 nm; result in words
Description: 200 ml of deionised water, 10 g of Sabouraud 2% glucose broth and 0.11 g of Gelrite® are boiled until sterile. The test organism is then added in the form of a lyophilisate or living culture and pre-incubated for 3 hours at 35° C.
The developed TLC plate is dipped briefly into the fungal suspension, and excess suspension is removed from the base of the plate. The TLC plate is subsequently incubated for 20 hours at room temperature in a can lined with moist paper.
The evaluation is carried out by fluorescence extinction at 254 nm.

Compound: C[Si](Cn1cncn1)(c1ccc(F)cc1)c1ccc(F)cc1 [A2, flusilazole]
- Zone of inhibition 2 ppb [1]: ++
- Zone of inhibition 100 ppt [1]: −
- Zone of inhibition 500 ppt [1]: +
- Detection limit ([1]; also printed as 500 ng/kg): 500 ppt (500 ng/kg)

Compound: CCC[CH2][Sn]([Cl])([CH2]CCC)[CH2]CCC [F2, Tributyltin Chloride]
- zone of inhibition on the starting line (Rf=0) [2]: evident

Compound: CC(Cc1ccc(C(C)(C)C)cc1)CN1C[C@@H](C)O[C@@H](C)C1 (some centres unmarked) [A1, fenpropimorph]
- Zone of inhibition 2 ppb [1]: ++
- Zone of inhibition 100 ppt [1]: −
- Zone of inhibition 500 ppt [1]: −
- Detection limit ([1]; also printed as 2 μg/kg): 2 ppb (2 μg/kg)

Compound: CCC[CH2][Sn]([Cl])([CH2]CCC)[CH2]CCC [F1, Tributyltin Chloride]
- zone of inhibition with Rf about 1.0 [2]: evident

Compound: CCCC1COC(Cn2cncn2)(c2ccc(Cl)cc2Cl)O1 (centres unmarked) [A3, propiconazole]
- Zone of inhibition 2 ppb [1]: ++
- Zone of inhibition 100 ppt [1]: −
- Zone of inhibition 500 ppt [1]: +
- Detection limit ([1]; also printed as 500 ng/kg): 500 ppt (500 ng/kg)
